Measurements published in patent publication US20120016009A1, “Optimized Methods For Delivery Of DSRNA Targeting The PCSK9 Gene” (priority 2008, published 2012).
In the oligonucleotide strings, read from the 5' end, every base follows the letter of its sugar. An asterisk marks phosphorothioate; unmarked linkages are phosphodiester. Other units and linkages are bracketed, terminal groups are in braces. A string of capitals states the bases alone. d = 2'-deoxy (DNA); m = 2'-O-methyl; r = 2'-OH (RNA); {P} = phosphate; f = 2'-fluoro

What was measured:
[1] = system: primary human blood monocytes (hPBMC); assay: IFN-alpha induction in primary human blood monocytes (hPBMC); format: cell-based; conditions: for IFN-α Induction: first word of the cell IFN-α/TNF-α Induction (Yes/No); for IFN-alpha induction: human primary blood monocytes
Procedure: (§1) siRNAs were tested for activation of the immune system in primary human blood monocytes (hPBMC). […] However, chemically modified versions of this sequence (AD-1a2, AD-1a3, AD-1a5, and AD-1a4) as well as AD-2a1 were negative for both IFN-alpha and TNF-alpha induction in these same assays (see Table 5, and FIGS. 13A and 13B). Thus chemical modifications are capable of dampening both IFN-alpha and TNF-alpha responses to siRNA molecules.

[2] = system: PCSK9 mRNA; assay: PCSK9 silencing in primary cynomolgus monkey hepatocytes (dilution series from 30 nM, PCSK9/GAPDH mRNA); format: cell-based
Procedure: Primary cynomolgus monkey hepatocytes (cryopreserved) were obtained from In vitro Technologies, Inc. (Baltimore, Md., USA, cat No M00305) and cultured in InVitroGRO CP Medium (cat No Z99029) at 37° C. in an atmosphere with 5% CO2 in a humidified incubator.
For transfection with siRNA, primary cynomolgus monkey cells were seeded on Collagen coated plates (Fisher Scientific, cat. No. 08-774-5) at a density of 3.5×10^4 cells/well in 96-well plates and transfected directly. Transfection of siRNA (eight 2-fold dilution series starting from 30 nM) in duplicates was carried out with lipofectamine 2000 (Invitrogen GmbH, Karlsruhe, Germany, cat. No. 11668-019) as described by the manufacturer.
16 hours after transfection medium was changed to fresh InVitroGRO CP Medium with Torpedo Antibiotic Mix (In vitro Technologies, Inc, cat. No Z99000) added.
24 hours after medium change primary cynomolgus monkey cells were lysed and PCSK9 mRNA levels were quantified with the Quantigene Explore Kit (Genosprectra, Dumbarton Circle Fremont, USA, cat. No. QG-000-02) according to the protocol. PCSK9 mRNA levels were normalized to GAPDH mRNA. Normalized PCSK9/GAPDH ratios were then compared to PCSK9/GAPDH ratio of lipofectamine 2000 only control.

[3] = system: PCSK9; assay: Total serum cholesterol in rats after LNP01 formulated PCSK9 siRNA (duration of action); format: in vivo, rat; conditions: versus PBS or control siRNA
Procedure: Rats were treated via tail vein injection with 5 mg/kg of LNP01-10792 (Formulated ALDP-10792). Blood was drawn at the indicated time points (see Table 3) and the amount of total cholesterol compared to PBS treated animals was measured by standard means. Total cholesterol levels decreased at day two ˜60% and returned to baseline by day 28.
To test if acute silencing of the PCSK9 transcript by a PCSK9 siRNA (and subsequent PCSK9 protein down-regulation), would result in acutely lower total cholesterol levels, siRNA molecule AD-1a2 (AD-10792) was formulated in an LNP01 lipidoid formulation. Liposomal formulated siRNA duplex AD-1a2 (LNP01-1a2) was injected via tail vein in low volumes (˜0.2 ml for mouse and ˜1.0 ml for rats) at different doses into C57/BL6 mice or Sprague Dawley rats.
Down-modulation of total cholesterol in rats has been historically difficult as cholesterol levels remain unchanged even at high doses of HMG-CoA reductase inhibitors. […] Rats were dosed with a single injection of LNP01-a2 via tail vein at 1, 2.5 and 5 mg/kg. Liver tissue and blood were harvested 72 hours post-injection. […] The mRNA silencing was associate with an acute ˜50-60% decrease of serum total cholesterol (FIGS. 10A and 10B) lasting 10 days, with a gradual return to pre-dose levels by ˜3 weeks (FIG. 10B).
Phosphorothioate modifications at the 3′ ends of both sense and antisense strands of a dsRNA can protect against exonucleases. 2′OMe and 2′F modifications in both the sense and antisense strands of a dsRNA can protect against endonucleases. AD-1a2 (see Table 5b) contains 2′OMe modifications on both the sense and antisense strands. Experiments were performed to determine if the inherent stability (as measured by siRNA stability in human serum) or the degree or type of chemical modification (2′OMe versus 2′F or a mixture) was related to either the observed rat efficacy or the duration of silencing effects. Stability of siRNAs with the same AD-1a2 core sequence, but containing different chemical modifications were created and tested for activity in vitro in primary Cyno monkey hepatocytes. A series of these molecules that maintained similar activity as measured by in vitro IC50 values for PCSK9 silencing (Table 5b), were then tested for their stability against exo and endonuclease cleavage in human serum. Each duplex was incubated in human serum at 37° C. (a time course), and subjected to HPLC analysis. […] Sequences AD-1a3, AD-1a5, and AD-1a4, which were more heavily modified (see chemical modifications in Table 5) all had T ½'s greater than 24 hours. […] Blood was collected from animals at various days post-dose, and total cholesterol concentrations were measured. […]

[4] = system: primary human blood monocytes (hPBMC); assay: TNF-alpha induction in primary human blood monocytes (hPBMC); format: cell-based; conditions: for TNF-alpha induction: human primary blood monocytes; for TNF-α Induction: second word of the cell IFN-α/TNF-α Induction (Yes/No)
Procedure: as §1

[5] = system: PCSK9 mRNA; assay: In vitro screening of modified dsRNAs targeted to PCSK9 (Table 2b; cell type not given); format: cell-based; conditions: 30 nM siRNA
Procedure, shortened: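 Activity is reported as percent PCSK9 transcript remaining versus an unrelated control duplex, from eight datapoints per siRNA. Knockdown was read by Quantigene branched-DNA assay with GAPDH normalization 24 h after lipofectamine 2000 transfection of 30 nM siRNA.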

[6] = system: PCSK9 mRNA; assay: PCSK9 siRNA screening in HepG2 cells (lipofectamine 2000 transfection, PCSK9 mRNA by Quantigene, normalized to GAP-DH); format: cell-based, human; conditions: for Mean percent remaining mRNA transcript at siRNA concentration/in cell type 3 nM/HepG2: 3 nM siRNA; for Mean percent remaining mRNA transcript at siRNA concentration/in cell type 30 nM/HepG2: 30 nM siRNA
Procedure, shortened: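 PCSK9 silencing was assessed in HepG2 cells by lipofectamine 2000 siRNA transfection in 96-well plates. Twenty-four hours later, lysates were analyzed with the Quantigene Explore Kit, with PCSK9 signal normalized to GAP-DH. Eight datapoints were collected per siRNA, and remaining transcript was expressed as a percentage of cells treated with an unrelated control siRNA duplex.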

[7] = PCSK9 silencing in primary cynomolgus monkey hepatocytes, approximate IC50, read-out: Primary Cynomolgus Monkey Hepatocytes ~IC50
[8] = primary cynomolgus monkey hepatocytes, read-out: IC50 in Cynomolgous monkey Hepatocyte [nM]s

Substance | IFN-α Induction [1] | IFN-alpha induction [1] | IC50 [2, 7] [nM] | decrease of total cholesterol day 2 post-dose [3] [%] | TNF-alpha induction [4] | TNF-α Induction [4] | IFN-alpha induction ([1]; listed as AD-1a1) | activity in vitro in primary monkey hepatocytes [2] | TNF-alpha induction ([4]; listed as AD-1a1) | Remaining mRNA in % of controls at siRNA conc. of 30 nM [5] [%] | IC50 [6] [nM] | Mean percent remaining mRNA transcript at siRNA concentration/in cell type 3 nM/HepG2 [6] [%] | Mean percent remaining mRNA transcript at siRNA concentration/in cell type 30 nM/HepG2 [6] [%] | IC50 [2, 8] [nM]
AD-1a3: modified dsRNA, AD-1a2 core sequence, Alt 2′ F, 2′ OMe both strands; SEQ ID NO:1509/1510 (chain 1 GCCUGGAGUUUAUUCGGAATT; chain 2 {P}-mUfUmCfCmGfAmAfUmAfAmAfCmUfCmCfAmGfGmCdT*dT; chain 1: sugars from the 5' end fmfmfmfmfmfmfmfmfmfdd, backbone not given here) | No/No | negative | 0.07 to 0.2 | ~60 | negative | No/No |  |  |  |  |  |  |  | 
AD-9314: unmodified parental PCSK9 siRNA, SEQ ID NO:1503/1504 (chain 1 rGrCrCrUrGrGrArGrUrUrUrArUrUrCrGrGrArAdT*dT; chain 2 rUrUrCrCrGrArArUrArArArCrUrCrCrArGrGrCdT*dT) | Yes/Yes | induced IFN-alpha | 0.07 to 0.2 |  | induced TNF-alpha | Yes/Yes | induce both IFN-alpha and TNF-alpha | active in vitro | induce both IFN-alpha and TNF-alpha | 9 | 0.04 | 22 | 11 | 
AD-1a5: modified dsRNA, sense 2′ F, antisense 2′ F all Py, 5′ Phosphate; SEQ ID NO:1513/1514 (sense GCCUGGAGUUUAUUCGGAATT; antisense {P}-fUfUfCfCrGrArAfUrArArAfCfUfCfCrArGrGfCdT*dT; sense: chemistry not given here; sense strand 2'-F modified, exact pattern not fully given) | No/No | negative | 0.07 to 0.2 | ~60 | negative | No/No |  |  |  |  |  |  |  | 
AD-10793: modified dsRNA, SEQ ID NO:1307/1308 (chain 1 rGmCmCmUrGrGrArGmUmUmUrAmUmUmCrGrGrArAdT*dT; chain 2 mUrUmCrCrGrArAmUrArArArCrUmCmCrArGrGrCdT*dT) |  |  |  |  |  |  |  | active in vitro |  | 32 |  |  |  | 
AD-9736: PCSK9 siRNA which targets only human and monkey PCSK9 message; SEQ ID NO:1517/1518 (chain 1 AGGuGuAucuccuAGAcAcTsT; chain 2 GUGUCuAGGAGAuAcACCUTsT; as printed in the source, key not given here) | No/No |  | 0.1 to 0.3 |  |  | No/No |  |  |  |  | 0.04 | 29 | 22 | 0.5
AD-1a4: modified dsRNA, sense 2′ OMe, antisense 2′ F all Py, 5′ Phosphate; SEQ ID NO:1511/1512 (sense rGmCmCmUrGrGrArGmUmUmUrAmUmUmCrGrGrArAdT*dT; antisense {P}-fUfUfCfCrGrArAfUrArArAfCfUfCfCrArGrGfCdT*dT) | No/No | negative | 0.07 to 0.2 | ~60 | negative | No/No |  |  |  |  |  |  |  | 
AD-10796: modified dsRNA, SEQ ID NO:1309/1310 (chain 1 rGmCmCmUrGrGrArGmUmUmUrAmUmUmCrGrGrArAdT*dT; chain 2 rUrUrCrCrGrArArUrArArArCrUrCrCrArGrGrCdT*dT) |  |  |  |  |  |  |  | active in vitro |  | 13 | 0.1 |  |  | 0.1
AD-ctrl: control siRNA targeting luciferase; SEQ ID NO:1519/1520 (chain 1 mCmUmUrAmCrGmCmUrGrArGmUrAmCmUmUmCrGrAdT*dT; chain 2 rUrCrGrArArGmUrArCrUmCrArGrCrGmUrArArGdT*dT) [reference compound] | No/No |  |  |  |  | No/No |  |  |  |  |  |  |  | 
AD-9679: PCSK9 siRNA (sense mUmCmUrArGrAmCmCmUrGmUmUmUmUrGmCmUmUmUdT*dT; antisense rArArArGmCrArArArAmCrArGrGrUrCmUrArGrAdT*dT) |  |  |  |  |  |  |  |  |  |  |  | 21 | 17 | 0.1
AD-9762: PCSK9 siRNA (sense mCrAmUrAmCrArGrArGmUrGrAmCmCrAmCmCrGrGdT*dT; antisense rCrCrGrGrUrGrGrUmCrArCrUrCrUrGmUrArUrGdT*dT) |  |  |  |  |  |  |  |  |  |  | 0.4 | 28 | 9 | 0.5
